Laboratory results taken from PubChem BioAssay AID1963424 (Molecular Pharmacology Branch, DTP, NCI, 2024).

Test system: 327498-153-R-J2-PDC complex spheroid growth, % test/control
Experiment: Anticancer human tumor 327498-153-R-J2-PDC patient-derived uterine carcinosarcoma cell line growth inhibition [Asc]
Settings: for IC50: curve of first compound; for viability, T/C: stronger effect = lower value; active = viability on the fitted dose curve at most 10% of control; inactive = the rest
Summary of the method: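 Tumor cells were grown as complex spheroids with human endothelial cells (HUVEC) and human mesenchymal stem cells as stroma. Agents were tested alone and in combination, in half-log steps down from the clinical Cmax, or from 10 microM where Cmax was unknown.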

[1] = second compound 0.01 µM, first compound 0.00316 µM
[2] = second compound 0.01 µM, first compound 0.01 µM
[3] = second compound 0.01 µM, first compound 0.0316 µM
[4] = second compound 0.01 µM, first compound 0.1 µM
[5] = second compound 0.01 µM, first compound 0.316 µM
[6] = second compound 0.01 µM, first compound 1 µM
[7] = second compound 0.0316 µM, first compound 0.00316 µM
[8] = second compound 0.0316 µM, first compound 0.01 µM
[9] = second compound 0.0316 µM, first compound 0.0316 µM
[10] = second compound 0.0316 µM, first compound 0.1 µM
[11] = second compound 0.0316 µM, first compound 0.316 µM
[12] = second compound 0.0316 µM, first compound 1 µM
[13] = second compound 0.1 µM, first compound 0.00316 µM
[14] = second compound 0.1 µM, first compound 0.01 µM
[15] = second compound 0.1 µM, first compound 0.0316 µM
[16] = second compound 0.1 µM, first compound 0.1 µM
[17] = second compound 0.1 µM, first compound 0.316 µM
[18] = second compound 0.1 µM, first compound 1 µM
[19] = second compound 0.316 µM, first compound 0.00316 µM
[20] = second compound 0.316 µM, first compound 0.01 µM
[21] = second compound 0.316 µM, first compound 0.0316 µM
[22] = second compound 0.316 µM, first compound 0.1 µM
[23] = second compound 0.316 µM, first compound 0.316 µM
[24] = second compound 0.316 µM, first compound 1 µM
[25] = second compound 1 µM, first compound 0.00316 µM
[26] = second compound 1 µM, first compound 0.01 µM
[27] = second compound 1 µM, first compound 0.0316 µM
[28] = second compound 1 µM, first compound 0.1 µM
[29] = second compound 1 µM, first compound 0.316 µM
[30] = second compound 1 µM, first compound 1 µM
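Also: spheroids exposed to compound for 7 days after 3 days of growth.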
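For viability, T/C in this document: 100% = DMSO vehicle control wells.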

CCN1CCN(Cc2ccc(Nc3ncc(F)c(-c4cc(F)c5nc(C)n(C(C)C)c5c4)n3)nc2)CC1 + CNC(C)C(=O)NC1CN(S(=O)(=O)c2cccc(S(=O)(=O)N3CCC4CCC(C(=O)NC(c5ccccc5)c5ccccc5)N4C(=O)C(NC(=O)C(C)NC)C3)c2)CCC2CCC(C(=O)NC(c3ccccc3)c3ccccc3)N2C1=O
> 1000 nM: IC50 (second compound 0.01 µM) | IC50 (second compound 0.0316 µM) | IC50 (second compound 0.1 µM) | IC50 (second compound 0.316 µM) | IC50 (second compound 1 µM)
inactive: viability, T/C [1] 102% | viability, T/C [2] 110% | viability, T/C [3] 97.7% | viability, T/C [4] 88.9% | viability, T/C [5] 68.7% | viability, T/C [6] 73.8% | viability, T/C [7] 106% | viability, T/C [8] 104% | viability, T/C [9] 90.5% | viability, T/C [10] 82.4% | viability, T/C [11] 61.2% | viability, T/C [12] 65% | viability, T/C [13] 99.4% | viability, T/C [14] 104% | viability, T/C [15] 94% | viability, T/C [16] 76.7% | viability, T/C [17] 68% | viability, T/C [18] 68.2% | viability, T/C [19] 110% | viability, T/C [20] 100% | viability, T/C [21] 95.5% | viability, T/C [22] 75.9% | viability, T/C [23] 65.8% | viability, T/C [24] 64.4% | viability, T/C [25] 106% | viability, T/C [26] 115% | viability, T/C [27] 91.6% | viability, T/C [28] 82.1% | viability, T/C [29] 73% | viability, T/C [30] 54.7%

NC(=O)C(=Cn1cnc(-c2cc(C(F)(F)F)cc(C(F)(F)F)c2)n1)c1cncnc1 + CNC(C)C(=O)NC1CN(S(=O)(=O)c2cccc(S(=O)(=O)N3CCC4CCC(C(=O)NC(c5ccccc5)c5ccccc5)N4C(=O)C(NC(=O)C(C)NC)C3)c2)CCC2CCC(C(=O)NC(c3ccccc3)c3ccccc3)N2C1=O
38.6 nM: IC50 (second compound 0.01 µM)
40.9 nM: IC50 (second compound 0.1 µM) | IC50 (second compound 0.316 µM)
40.1 nM: IC50 (second compound 0.0316 µM)
46 nM: IC50 (second compound 1 µM)
active: viability, T/C (second compound 0.01 µM, first compound 0.3 µM) 1.73% | viability, T/C (second compound 0.0316 µM, first compound 0.0949 µM) 9.05% | viability, T/C (second compound 0.0316 µM, first compound 0.3 µM) 1.71% | viability, T/C (second compound 0.1 µM, first compound 0.3 µM) 1.32% | viability, T/C (second compound 0.316 µM, first compound 0.0949 µM) 9.52% | viability, T/C (second compound 0.316 µM, first compound 0.3 µM) 1.32% | viability, T/C (second compound 1 µM, first compound 0.0949 µM) 7.78% | viability, T/C (second compound 1 µM, first compound 0.3 µM) 1.13%
inactive: viability, T/C (second compound 0.01 µM, first compound 0.000949 µM) 93% | viability, T/C (second compound 0.01 µM, first compound 0.003 µM) 111% | viability, T/C (second compound 0.01 µM, first compound 0.00949 µM) 84.5% | viability, T/C (second compound 0.01 µM, first compound 0.03 µM) 63% | viability, T/C (second compound 0.01 µM, first compound 0.0949 µM) 12.1% | viability, T/C (second compound 0.0316 µM, first compound 0.000949 µM) 90.1% | viability, T/C (second compound 0.0316 µM, first compound 0.003 µM) 91.5% | viability, T/C (second compound 0.0316 µM, first compound 0.00949 µM) 88% | viability, T/C (second compound 0.0316 µM, first compound 0.03 µM) 63.8% | viability, T/C (second compound 0.1 µM, first compound 0.000949 µM) 92.8% | viability, T/C (second compound 0.1 µM, first compound 0.003 µM) 94.4% | viability, T/C (second compound 0.1 µM, first compound 0.00949 µM) 85.8% | viability, T/C (second compound 0.1 µM, first compound 0.03 µM) 65.4% | viability, T/C (second compound 0.1 µM, first compound 0.0949 µM) 9.53% | viability, T/C (second compound 0.316 µM, first compound 0.000949 µM) 91.9% | viability, T/C (second compound 0.316 µM, first compound 0.003 µM) 91.8% | viability, T/C (second compound 0.316 µM, first compound 0.00949 µM) 88.4% | viability, T/C (second compound 0.316 µM, first compound 0.03 µM) 65% | viability, T/C (second compound 1 µM, first compound 0.000949 µM) 102% | viability, T/C (second compound 1 µM, first compound 0.003 µM) 92.1% | viability, T/C (second compound 1 µM, first compound 0.00949 µM) 82.2% | viability, T/C (second compound 1 µM, first compound 0.03 µM) 75.2%

O=C(c1ccc(F)c(F)c1Nc1ccc(I)cc1F)N1CC(O)([C@@H]2CCCCN2)C1 + CNC(C)C(=O)NC1CN(S(=O)(=O)c2cccc(S(=O)(=O)N3CCC4CCC(C(=O)NC(c5ccccc5)c5ccccc5)N4C(=O)C(NC(=O)C(C)NC)C3)c2)CCC2CCC(C(=O)NC(c3ccccc3)c3ccccc3)N2C1=O
304 nM: IC50 (second compound 0.316 µM)
430 nM: IC50 (second compound 1 µM)
391 nM: IC50 (second compound 0.01 µM)
377 nM: IC50 (second compound 0.0316 µM) | IC50 (second compound 0.1 µM)
inactive: viability, T/C [1] 97.4% | viability, T/C [2] 91.9% | viability, T/C [3] 81.7% | viability, T/C [4] 78.5% | viability, T/C [5] 55.7% | viability, T/C [6] 23.5% | viability, T/C [7] 104% | viability, T/C [8] 98.6% | viability, T/C [9] 89% | viability, T/C [10] 76.4% | viability, T/C [11] 55.7% | viability, T/C [12] 22.9% | viability, T/C [13] 104% | viability, T/C [14] 88% | viability, T/C [15] 85.8% | viability, T/C [16] 76.8% | viability, T/C [17] 56% | viability, T/C [18] 21.9% | viability, T/C [19] 105% | viability, T/C [20] 102% | viability, T/C [21] 77.7% | viability, T/C [22] 75.7% | viability, T/C [23] 48.2% | viability, T/C [24] 22.6% | viability, T/C [25] 104% | viability, T/C [26] 92.9% | viability, T/C [27] 92.3% | viability, T/C [28] 80.9% | viability, T/C [29] 62.5% | viability, T/C [30] 20%
